“And” between values parts separate entries of the source, which are not always exact repeats. Identical values can stand only once.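 Test compounds were applied to cells in 96-well plates for 48 hours at 5 doses. GI50 = concentration required for 50% inhibition of growth. Definition used: TGI = concentration required for complete inhibition of growth.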
Assays:
Test in all cases: inhibition of tumour cell growth, NCI panel, 48 h
K-562 leukemia = tested on: K-562 leukemia
COLO 205 colon = tested on: COLO 205 colon
OVCAR-5 ovarian = tested on: OVCAR-5 ovarian
SR leukemia = tested on: SR leukemia
RPMI-8226 leukemia = tested on: RPMI-8226 leukemia
UACC-257 melanoma = tested on: UACC-257 melanoma
NCI-H460 lung = tested on: NCI-H460 lung
T-47D breast = tested on: T-47D breast
HS 578T breast = tested on: HS 578T breast
BT-549 breast = tested on: BT-549 breast

SMILES	TGI (K-562 leukemia)	TGI (COLO 205 colon)	TGI (OVCAR-5 ovarian)	TGI (SR leukemia)	TGI (RPMI-8226 leukemia)	TGI (UACC-257 melanoma)	TGI (NCI-H460 lung)	GI50 (K-562 leukemia)	GI50 (OVCAR-5 ovarian)	GI50 (SR leukemia)	GI50 (COLO 205 colon)	GI50 (RPMI-8226 leukemia)	GI50 (UACC-257 melanoma)	GI50 (NCI-H460 lung)	GI50 (T-47D breast)	TGI (T-47D breast)	GI50 (HS 578T breast)	TGI (HS 578T breast)	GI50 (BT-549 breast)	TGI (BT-549 breast)
Cc1ccc(/C=N/NS(=O)(=O)c2ccccc2)cc1C	> 100 µM	> 100 µM	> 100 µM	> 100 µM	> 100 µM	> 100 µM	> 100 µM													
CC(C)CCCCCCCCCCCCC(=O)NCC(=O)NC1C(C)OC(Nc2ncnc3nc[nH]c23)C(O)C1O (configuration not stated)						0.472 µM	0.00577 µM and < 0.0111 µM	0.0414 µM	0.00814 µM	4.51 nM										
CC[O-].CC[O-].O=C([CH-]C(=O)c1ccccc1)CCCCCCC(=O)[CH-]C(=O)c1ccccc1.[Ti+4]	> 100 µM	> 100 µM	> 100 µM		> 100 µM	> 100 µM	> 100 µM	> 100 µM	> 100 µM		> 100000 nM	> 100000 nM	> 100 µM	> 100000 nM						
COc1cc2c(/C=C3/C(=O)Nc4ccc(O)cc43)c(Cl)n(Cc3cc(OC)c(OC)c(OC)c3)c2cc1C	> 31.6 µM	> 100 µM	> 100 µM		> 100 µM	> 47.6 µM	> 32.7 µM	2.17 µM	15.6 µM	329 nM	2610 nM	2120 nM	3.43 µM	1860 nM	5.55 µM	> 70.8 µM	2.37 µM	> 30.5 µM		
O=[N+]([O-])c1cc(I)cc(/C=N/NS(=O)(=O)c2ccc(Cl)cc2)c1O	57.1 µM	33.1 µM	71.6 µM	46.2 µM	59.7 µM	53.9 µM	37.4 µM													
CCN(CCO)CCCC(C)Nc1ccnc2cc(Cl)ccc12 (configuration not stated)		> 100 µM				> 100 µM	> 100 µM				> 100000 nM		> 100 µM	> 100000 nM	> 100 µM	> 100 µM	> 100 µM	> 100 µM	> 100000 nM	> 100 µM
CC(=O)NCc1c(C(N)=O)ncn1Cc1ccccc1	> 100 µM	> 100 µM			> 100 µM	> 100 µM	> 100 µM													
C1C[OH+]CCNCC[OH+]CC[OH+]CCN1.N.[Cl-].[Pt+4]	> 100 µM	47.7 µM			> 100 µM	> 100 µM	> 100 µM	41.5 µM			18900 nM	27500 nM	78.8 µM	93000 nM						
COc1cc2c(c(OC)c1OC)-c1c(c3ccc([N+](=O)[O-])cc3c(=O)n1CCCBr)C2=O	> 100 µM	> 100 µM	> 100 µM	> 100 µM	> 100 µM	> 100 µM	> 100 µM	38.8 µM	> 100 µM	4370 nM	> 100000 nM	35000 nM	> 100 µM	8530 nM			67.9 µM	> 100 µM	35800 nM	97.5 µM
O=C1NC2(CCCC2)C2CCCCC12O (configuration not stated)	> 100 µM	> 100 µM	> 100 µM	> 100 µM	> 100 µM	> 100 µM	> 100 µM													
CC(=O)OC1=C2CC[C@@H]3C(CC[C@@]4(C)C3CC[C@@H]4OC(C)=O)[C@@]2(C)CC(C#N)C1=O (some centres not stated)	88.1 µM	43.5 µM	> 100 µM		46.9 µM	> 100 µM	74.4 µM													
COc1ccccc1NC(=O)C1=C(C)NC(C)=C(C(=O)Nc2ccccc2OC)C1c1ccccc1Cl	> 100 µM	> 100 µM	> 100 µM	> 100 µM	> 100 µM	> 100 µM	> 100 µM													
COc1ccc(C[C@]23CCC(=O)N2CCc2cc(OC)c(O)cc23)cc1O	> 100 µM	> 100 µM	> 100 µM		> 100 µM	> 100 µM	> 100 µM													
OCCN(CCO)c1nc(N2CCCCC2)c2nc(N(CCO)CCO)nc(N3CCCCC3)c2n1	> 100 µM	> 100 µM	> 100 µM	22.2 µM		> 100 µM	> 100 µM									> 100 µM		79.6 µM		
COc1ccc(-c2oc3c(OC)c(OC)c(OC)c(O)c3c(=O)c2OC)cc1O	13.5 µM	23.5 µM	> 100 µM	0.112 µM		> 100 µM	0.138 µM			< 10 nM			< 0.01 µM	< 10 nM						
O=S1(=O)c2cc(S(=O)(=O)n3ccnc3)ccc2NC2=NCCCN21	> 100 µM	35.2 µM	> 100 µM	75.6 µM	> 100 µM	> 100 µM														
COc1ccc2c(c1)C(=O)c1c-2c(N2CCN(C(=O)CCNCCNCCN)CC2)nc2ccccc12	9.63 µM	6.34 µM			9.71 µM	9.33 µM	5.42 µM	3.33 µM			2540 nM	2930 nM	3.24 µM	2400 nM	3.43 µM	15.6 µM	14.2 µM	46.5 µM		

SMILES	TGI (K-562 leukemia)	TGI (COLO 205 colon)	TGI (OVCAR-5 ovarian)	TGI (SR leukemia)	TGI (RPMI-8226 leukemia)	TGI (UACC-257 melanoma)	TGI (NCI-H460 lung)	GI50 (K-562 leukemia)	GI50 (OVCAR-5 ovarian)	GI50 (SR leukemia)	GI50 (COLO 205 colon)	GI50 (RPMI-8226 leukemia)	GI50 (UACC-257 melanoma)	GI50 (NCI-H460 lung)	GI50 (T-47D breast)	TGI (T-47D breast)	GI50 (HS 578T breast)	TGI (HS 578T breast)	GI50 (BT-549 breast)	TGI (BT-549 breast)
CN(C)CCN(C)C(=O)c1cccc2cccc(C(=O)O)c12	> 100 µM	> 100 µM	> 100 µM	> 100 µM	> 100 µM	> 100 µM	> 100 µM													
C/C(CC(C)(C)N1CC1)=N\NC(=O)Nc1cccc2ccccc12	24.5 µM	7.19 µM	23 µM	6.13 µM	8.74 µM	16.2 µM	10 µM	3.56 µM	6.04 µM	2020 nM	2390 nM	2710 nM	4.09 µM	2860 nM	4.35 µM	17.3 µM	2.45 µM	24.7 µM		
O=C(C=Nc1ccccc1S)c1ccco1	45.8 µM	32.1 µM			46.1 µM	32.1 µM	> 100 µM							> 100000 nM						
COc1cc(/C=C2\NC(=O)C3Cc4c(OC)c(C)c(OC)c(OC)c4C2N3C)c(OC)c(C)c1OC (configuration not stated)	> 100 µM	> 100 µM	> 100 µM	> 100 µM		> 100 µM														
CC(=O)[CH-]C(C)=O.CC(=O)[CH-]C(C)=O.[Cl-].[O]=[V]		34.5 µM	70.1 µM	> 100 µM			> 100 µM		26.4 µM	> 100000 nM	18200 nM			46200 nM						
Cc1nc2ccccc2c(/C=C/c2ccccc2)c1C(=O)/C=C/c1ccc(C(F)(F)F)cc1	> 100 µM	5.4 µM	4.45 µM	> 100 µM	3.85 µM	4.25 µM		0.775 µM	1.93 µM	380 nM	2130 nM	394 nM	1.96 µM		1.18 µM	3.88 µM			1250 nM	2.89 µM
CCOC(=O)Nc1ccc2c(c1)C(=O)N(CC)c1ccccc1O2	> 100 µM	0.617 µM	> 100 µM		> 100 µM	> 100 µM	> 100 µM	0.0484 µM		47.9 nM	81.9 nM	126 nM	35.6 µM	116 nM			0.117 µM	> 100 µM	184 nM	16.9 µM
[Co].[O-]c1cccnc1C=Nc1ccccc1.[OH3+]	> 100 µM	> 100 µM	> 100 µM		> 100 µM	> 100 µM	> 100 µM	45.8 µM	> 100 µM		> 100000 nM	> 100000 nM	> 100 µM	> 100000 nM						
CCOC(=O)c1c(-c2ccc(OC)c(O)c2)c(C#N)c(=S)n(C2OC(COC(C)=O)C(OC(C)=O)C(OC(C)=O)C2OC(C)=O)c1-c1ccccc1 (configuration not stated)	> 100 µM	> 100 µM	> 100 µM	> 100 µM	81.5 µM and > 100 µM	60.8 µM and > 100 µM	> 100 µM	43.1 µM and > 100 µM			27900 nM and > 100000 nM	36500 nM and 6100 nM	23.4 µM and > 100 µM				38.8 µM and > 100 µM	> 100 µM		64 µM
CCOC(=O)CNC(=O)OCc1ccccc1	> 100 µM	> 100 µM	> 100 µM			> 100 µM	> 100 µM													
O=C(O)CCSC(=O)Nc1cccc2ccccc12	> 100 µM	> 100 µM	> 100 µM	> 100 µM	> 100 µM	> 100 µM	> 100 µM													
CN=C1CN=C(OP(=O)(N2CCOCC2)N2CCOCC2)c2cc(Cl)ccc2N1	> 100 µM		> 100 µM	> 100 µM	> 100 µM	> 100 µM	> 100 µM													
O=C(CC1(O)C(=O)Nc2ccccc21)c1ccc(Cl)cc1Cl (configuration not stated)	> 100 µM	> 100 µM	> 100 µM		> 100 µM	> 100 µM														
CO/C=C(\Br)c1ccc2c(c1)OCO2	> 100 µM		> 100 µM	> 100 µM		> 100 µM														
C/C(=C\C(C[C@](C)(O)C(O)CCC#C[Si](C)(C)C)S(=O)(=O)c1ccccc1)CC/C=C/CO[Si](C)(C)C(C)(C)C (some centres not stated)	29 µM		26.9 µM		31.6 µM	32.5 µM	27 µM													
CCC[CH2][Sn]1([CH2]CCC)[O]CC[S]1	1.28 µM	3.29 µM	2.72 µM		0.551 µM	2.04 µM	3.72 µM	0.15 µM	1.39 µM		969 nM	162 nM	0.679 µM	1770 nM						
